Data from PMC9179882 (Cancers, 2022).

What was measured:
[1] = tested on: CMYC (CD and UV-vis oligonucleotide) (DNA, G4) TGGGGAGGGTGGGGAGGGTGGGGAAGG; experiment: UV-vis titration at 265 nm; details: 100 mM KCl, 10 mM potassium phosphate; pH 7.0, 25 °C; 5 µM DNA; GA to 1:20 DNA:GA
CRL1790 cells = experiment: Resazurin cytotoxic assay, non-tumoral CRL1790; assay type: cell-based; details: Homo sapiens, Epithelial cell, CRL1790 non-tumoral colon epithelial cells, 48 h, mean ± SD
Experimental: (§1) CRL1790, SW480 and SW620 cell lines were purchased from American Type Culture Collection (ATCC). Cells were cultured at 37 °C with 5% CO2 atmosphere in medium supplemented with 10% fetal bovine serum (10270106, Gibco, Waltham, MA, USA), 10 mg/mL penicillin, 10 mg/mL streptomycin, […] amphotericin, and 0.03% L-Glutamine as recommended by the ATCC. MEM medium (M5650, Merck, Darmstadt, Germany) was used for non-tumoral CRL1790, and RPMI 1640 medium (L0501-500, Biowest, Nuaillé, France) was used for both tumoral SW480 and SW620 cell lines.
(§2) Cytotoxic activity was screened using Resazurin Fluorimetric Assay (R7017, Merck, Darmstadt, Germany), according to the manufacturer’s protocol. Cells seeded into 96-well plates (8 × 10^3 cells/well) were treated for 48 h with phenolic compounds at increasing concentrations from 2 × 10^−5 µM to 100 µM. Negative control with vehicle DMSO was included. Fluorescence was determined using Nanoquant Infinite M200 Pro multi-plate reader (Tecan). Half-maximal inhibitory concentration (IC50) values were determined in triplicate by non-linear regression with Graphpad (Prism).
(§3) Natural products such as phenolic compounds have recently attracted significant attention for their anticancer properties. […] We used three different cell lines to mimic CRC progression. In particular, CRL1790 are colon epithelial cells simulating the non-tumoral stage. In addition, SW480 is Dukes’ type B colorectal adenocarcinoma cells representing the primary tumor. Finally, SW620 constitutes Dukes’ type C colorectal adenocarcinoma derived from metastasic site cells to mimic the most aggressive metastasic stage. […] Cytotoxic potency upon 48 h treatment with phenolic compounds was examined by determination of half-maximal inhibitory concentration (IC50) values using the Resazurin method (Table 1). Only GA inhibited cell growth in SW480 and SW620 at clinically-relevant concentrations (IC50 values lower than 30 µM).

SW620 cells = experiment: Resazurin cytotoxic assay, metastatic SW620; assay type: cell-based, human; details: 48 h, mean ± SD
Experimental: as §1, §2, §3

[2] = tested on: CMYC (FID oligonucleotide) (DNA, G4) GGGGCGCTTATGGGGAGGGTGGGGAGGGTGGGGAAGGTGGGGAGGAG; experiment: fluorescent intercalator displacement (TOPRO3); details: oligonucleotide prefolded in 100 mM KCl, 10 mM potassium phosphate; TOPRO3 displaced; 10 µM GA, single concentration; prefolding buffer pH 7.0
SW480 cells = experiment: Resazurin cytotoxic assay, tumoral SW480; assay type: cell-based, human; details: SW480 primary tumor cells, mean ± SD
Experimental: as §1, §2, §3

5′ETS G4 = experiment: UV-vis titration, 5′ETS G4; assay type: binding; details: UV-vis titration at 265 nm, 5′ETS G4, 25 °C, pH 7.0; read-out: dissociation constant (Kd)
Experimental: G4-oligonucleotides listed in Supplementary Table S3 were purchased from Integrated DNA Technologies (Clareville, IA, USA). All of them were dissolved in G4s buffer (10 mM potassium phosphate, 100 mM potassium chloride at pH 7.0), heated at 95 °C for 10 min, slowly cooled to RT, and stored at 4 °C.
UV-vis absorption spectra were registered in a Varian Cary 50 UV-vis spectrophotometer at 25 °C. Concentration of the prefolded G4 DNA was 5 μM in G4s buffer (10 mM potassium phosphate buffer containing 100 mM potassium chloride at pH 7.0). Once the DNA was placed in the cuvette, a concentrated solution of GA (1 mM) was routinely added, 1 μL each time, with a Hamilton syringe and subsequently mixed with a pipette. After each addition of the GA solution, a UV-vis spectrum was recorded. In total, 10 μL of GA solution were added, with a final ratio of 1:20 G4 DNA:GA. For the blank, the same experiment with the successive additions was repeated, beginning just with buffer in the cuvette. […] Dissociation constants (Kd) were evaluated at 265 nm using the following equation:(1) A=Am+(Aml-Am)×(M+L+Kd)−(M+L+Kd)^2−4×M×L/2×M where A is the absorbance signal, Am is the signal of DNA in absence of the ligand, Aml is the signal of DNA in presence of the ligand, M is the total concentration of DNA, L is the total concentration of ligand, and Kd is the dissociation constant.

O=C(O)c1cc(O)c(O)c(O)c1 [Gallic acid, 3,4,5-trihydroxybenzoic acid]
Kd [1]: 113 µM
IC50 (CRL1790 cells): > 100 µM
IC50 (SW620 cells): 11.8 ± 1.54 µM
IC50 (SW620 cells; listed as GA): < 30 µM
%Fluorescence [2]: 84.3%
IC50 (SW480 cells; Homo sapiens, SW480, 48 h): < 30 µM
IC50 (SW480 cells; 48 h): 22.4 ± 2.12 µM
Kd (5′ETS G4): 148 µM
